Results: patent publication US9969747B2 (Constellation Pharmaceuticals, Inc., priority 2014, dated 2018)
Several values for one entry are separate records, joined by “and”; a condition that tells them apart may be missing. Equal values may be shown once. Read-outs that look alike come from different tables or passages of the source.

Legend:
[1] = Oral pharmacokinetics in male Sprague Dawley rats, suspension in 0.5% Methylcellulose; format: in vivo; conditions: 60 mg/Kg single oral dose
[2] = Oral pharmacokinetics in male beagle dogs, crossover, suspension in 0.5% MC; format: in vivo
Experimental: The objective was to compare the pharmacokinetic profiles of both forms in dogs using a crossover study design in which the same dogs were dosed sequentially with amorphous and monohydrate crystalline Form A with a washout period in between.

[3] = Solubility and form stability in deionized water; format: physicochemical; conditions: slurry in deionized water for 24 hr at ambient temperature
[4] = male beagle dog, 2 mg/Kg single oral dose, 2 mg/kg

Cc1noc2c1-c1ccccc1C(c1ccc(Cl)cc1)=N[C@H]2CC(N)=O [amorphous form, 2-((4S)-6-(4-chlorophenyl)-1-methyl-4H-benzo[c]isoxazolo[4,5-e]azepin-4-yl)acetamide]
Plasma concentration, individual rats ([1]; 1 h, 60 mg/kg): 8650 ng/mL
Plasma concentration, Mean ([1]; 1 h, 60 mg/kg, in ng/mL): 11700
Plasma concentration, individual rats ([1]; 1 h, 60 mg/kg, in ng/mL): 12700 and 13800
Plasma concentration, individual rats ([1]; 2 h, 60 mg/kg): 8830 ng/mL
Plasma concentration, Mean ([1]; 2 h, 60 mg/kg, in ng/mL): 11900
Plasma concentration, individual rats ([1]; 2 h, 60 mg/kg, in ng/mL): 14900 and 12100
Plasma concentration, Mean ([1]; 4 h, 60 mg/kg): 9860 ng/mL
Plasma concentration, individual rats ([1]; 4 h, 60 mg/kg): 8410 ng/mL and 9370 ng/mL
Plasma concentration, individual rats ([1]; 4 h, 60 mg/kg, in ng/mL): 11800
Plasma concentration, Mean ([1]; 8 h, 60 mg/kg): 6440 ng/mL
Plasma concentration, individual rats ([1]; 8 h, 60 mg/kg): 6550 ng/mL and 6450 ng/mL and 6310 ng/mL
Plasma concentration, Mean ([1]; 24 h): BQL
Plasma concentration, individual rats ([1]; 24 h, 60 mg/kg): BQL
Cmax ([1]; male, Sprague Dawley, rat, plasma, po, 60 mg/kg, read-out: Cmax): 11900 ng/mL
Tmax ([1]; rat, plasma, read-out: Tmax): 2 h
Inter-individual variability ([2]; male beagle dog, 2 mg/Kg oral, crossover): low inter-individual variability
Plasma concentration, Mean ([2]; male beagle dog, 2 mg/Kg single oral dose, 0.25 h, 2 mg/kg): 188 ng/mL
Plasma concentration, Mean ([2]; male beagle dog, 2 mg/Kg single oral dose, 0.5 h, 2 mg/kg): 471 ng/mL
Plasma concentration, Mean ([2]; male beagle dog, 2 mg/Kg single oral dose, 1 h, 2 mg/kg): 658 ng/mL
Plasma concentration, Mean ([2]; male beagle dog, 2 mg/Kg single oral dose, 2 h, 2 mg/kg): 577 ng/mL
Plasma concentration, Mean ([2]; male beagle dog, 2 mg/Kg single oral dose, 4 h, 2 mg/kg): 528 ng/mL
Plasma concentration, Mean ([2]; male beagle dog, 2 mg/Kg single oral dose, 6 h, 2 mg/kg): 289 ng/mL
Plasma concentration, Mean ([2]; male beagle dog, 2 mg/Kg single oral dose, 8 h, 2 mg/kg): 232 ng/mL
Plasma concentration, Mean ([2]; male beagle dog, 2 mg/Kg single oral dose, 12 h, 2 mg/kg): 153 ng/mL
Plasma concentration, Mean ([2]; male beagle dog, 2 mg/Kg single oral dose, 24 h, 2 mg/kg): 64 ng/mL
AUC0-inf, individual dogs [2, 4]: 5120 ng·h/mL and 7510 ng·h/mL and 6550 ng·h/mL and 4950 ng·h/mL and 7070 ng·h/mL
AUC0-last, individual dogs [2, 4]: 4560 ng·h/mL and 6220 ng·h/mL and 5540 ng·h/mL and 4610 ng·h/mL and 6060 ng·h/mL
Cmax, individual dogs [2, 4]: 646 ng/mL and 681 ng/mL and 672 ng/mL and 705 ng/mL and 706 ng/mL
MRT0-last, individual dogs [2, 4]: 7.73 h (2×) and 6.48 h and 7.69 h
T1/2, individual dogs [2, 4]: 7.86 h and 10.17 h and 9.21 h and 6.82 h and 9.17 h
Tmax, individual dogs [2, 4]: 1.00 h (5×) and 4.00 h
Tmax ([2]; male, beagle, dog, plasma, po, 2 mg/kg, 2 mg/Kg single oral dose): 1.5 h
AUC(0-inf) ([2]; male, beagle, dog, plasma, po, 2 mg/kg, 2 mg/Kg single oral dose, read-out: AUC0-inf, Mean): 6220 ng·h/mL
AUC(0-inf) ([2]; male, beagle, dog, plasma, po, 2 mg/kg, 2 mg/Kg single oral dose, read-out: AUC0-inf, individual dogs): 6110 ng·h/mL
AUC(0-t) ([2]; male, beagle, dog, plasma, po, 2 mg/kg, 2 mg/Kg single oral dose, read-out: AUC0-last, Mean): 5390 ng·h/mL
AUC(0-t) ([2]; male, beagle, dog, plasma, po, 2 mg/kg, 2 mg/Kg single oral dose, read-out: AUC0-last, individual dogs): 5370 ng·h/mL
Cmax ([2]; male, beagle, dog, plasma, po, 2 mg/kg, 2 mg/Kg single oral dose, read-out: Cmax, Mean): 670 ng/mL
Cmax ([2]; male, beagle, dog, plasma, po, 2 mg/kg, 2 mg/Kg single oral dose, read-out: Cmax, individual dogs): 609 ng/mL
MRT inf ([2]; male, beagle, dog, plasma, po, 2 mg/kg, 2 mg/Kg single oral dose, read-out: MRT0-inf, Mean): 11.2 h
MRT inf ([2]; male, beagle, dog, plasma, po, 2 mg/kg, 2 mg/Kg single oral dose, read-out: MRT0-inf, individual dogs): 11 h
MRT last ([2]; male, beagle, dog, plasma, po, 2 mg/kg, 2 mg/Kg single oral dose, read-out: MRT0-last, Mean): 7.45 h
MRT last ([2]; male, beagle, dog, plasma, po, 2 mg/kg, 2 mg/Kg single oral dose, read-out: MRT0-last, individual dogs): 7.59 h
half-life ([2]; male, beagle, dog, plasma, po, 2 mg/kg, 2 mg/Kg single oral dose, read-out: T1/2, Mean (converted)): 515 min
half-life ([2]; male, beagle, dog, plasma, po, 2 mg/kg, 2 mg/Kg single oral dose, read-out: T1/2, individual dogs (converted)): 499 min
Form change upon slurry in deionized water [3]: conversion to monohydrate Form A was observed
